Data taken from ChEMBL document CHEMBL1201862, “PubChem BioAssay data set” (2004).
Active and inactive are the calls of the source.

Experiments:
[1] = NIH-3T3 fibroblast cytotoxicity, dose response, cytotoxicity control, cell-based, fluorescence, Alamar Blue, secondary assay (AID 2327); assay type: functional;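 also: NIH-3T3 mouse fibroblasts cultured with fluconazole at 8 µg/mL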
[2] = target: T1, Delta-type opioid receptor (Homo sapiens, UniProt P41143); assay: HTS Image-Based Screen for Antagonists of the DOR Receptor. [Related pubchem assays (depositor defined):AID1777, AID1785, AID1786, AID2133]; assay type: functional
Mu-type opioid receptor = Mu-type opioid receptor (Homo sapiens, UniProt P35372); assay: HTS Image-Based Screen for Agonists of the MOR Receptor. [Related pubchem assays (depositor defined):AID1777, AID1785, AID1786, AID2133]; assay type: functional;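 also: imaging of beta-arrestin GFP recruitment into spots after receptor activation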
[3] = test system: Streptococcus sp. 'group A'; assay: growth inhibition of control SK(-) GAS strain, dose response, counter-screen for streptokinase expression inhibitor project, luminescence, kanamycin, BacTiterGlo, confirmation (AID 1900); assay type: functional, organism-based
[4] = target: T1, Delta-type opioid receptor; assay: HTS Image-Based Screen for Agonists of the DOR Receptor. [Related pubchem assays (depositor defined):AID1777, AID1786, AID2133]; assay type: functional
[5] = C. albicans growth with fluconazole, confirmation, fluorescence, retest (AID 2467); assay type: functional, cell-based
[6] = target: G-protein coupled receptor 55 (Homo sapiens, UniProt Q9Y2T6); assay: GPR55 antagonists blocking LPI-driven arrestin recruitment, primary screen, imaging, U2OS, beta-arrestin-GFP, LPI agonist (AID 2013); assay type: functional;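 also: antagonist potency measured as reduced agonist-driven arrestin aggregation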
[7] = inhibitors of intracellular T. cruzi replication, confirmation, NIH3T3 host cells, beta-gal luminescence (AID 2044); assay type: functional, cell-based;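 also: intracellular parasites grown in NIH/3T3 mouse fibroblasts as host cells; luminescent beta-galactosidase reporter signal from transgenic T. cruzi replicating inside host cells; inhibitors lower the luminescence signal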
[8] = target: T2, Kappa-type opioid receptor (Homo sapiens, UniProt P41145); assay type: functional
[9] = cytotoxicity toward NIH3T3 fibroblasts, dose response, counter-screen, cell-based, ATP luminescence, mouse fibroblasts (AID 2010); assay type: functional;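 also: cells exposed to compound for about 90 hours before reading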
Beta-galactosidase [10] = target: T3, Beta-galactosidase (Escherichia coli, UniProt Q8VNN2); assay type: functional
[11] = target: T2, Kappa-type opioid receptor; assay type: functional; remark: listed apart in the source
Streptococcus = assay: Group A Streptococcus viability loss, dose response, counter-screen for streptokinase expression inhibitor project, luminescence, BacTiterGlo (AID 1915); assay type: functional, organism-based;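 also: potency for reduction of bacterial viability or growth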
Beta-galactosidase [12] = target: T3, Beta-galactosidase; assay: beta-galactosidase enzyme inhibitors and activators, dose response, artefact control for CCR6 antagonist project, biochemical, E. coli enzyme, set 3 (AID 504712); assay type: functional
Vero = assay: cells; assay type: functional; conditions: Chlorocebus sabaeus
[13] = target: Photoreceptor-specific nuclear receptor (Homo sapiens, UniProt Q9Y5X4); assay type: functional, cell-based;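 also: CHO-S cells with Gal4-NCOR and VP16-NR2E3 two-hybrid luciferase reporter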
Tumor necrosis factor = Tumor necrosis factor (Homo sapiens, UniProt P01375); assay: TNFa-triggered NF-kB activation inhibitors, SAR follow-up, cell-based, revised (AID 2337); assay type: functional
HEK293 [14] = assay: cells; conditions: Homo sapiens
[15] = target: Intestinal-type alkaline phosphatase (Mus musculus, UniProt P24822); assay: PubChem AID 488874; assay type: functional
[16] = target: T4, Intestinal-type alkaline phosphatase (Homo sapiens, UniProt P09923); assay: human intestinal alkaline phosphatase activators, dose response, biochemical, luminescence, uHTS hits (AID 463120); assay type: functional
[17] = target: T4, Intestinal-type alkaline phosphatase; assay: human IAP activators, dose response, biochemical, luminescent, uHTS hits, set 2 (AID 488817); assay type: functional;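 also: potency of activators that raise enzyme activity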
[18] = target: T5, Alkaline phosphatase, tissue-nonspecific isozyme (Homo sapiens, UniProt P05186); assay: TNAP enzyme activators, dose response, selectivity assay for human IAP activator project, biochemical, TNAP isozyme, human IAP uHTS hits (AID 488886); assay type: functional;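 also: potency of compounds raising TNAP activity as a selectivity check on IAP activators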
T5 sequence (P05186 whole entry): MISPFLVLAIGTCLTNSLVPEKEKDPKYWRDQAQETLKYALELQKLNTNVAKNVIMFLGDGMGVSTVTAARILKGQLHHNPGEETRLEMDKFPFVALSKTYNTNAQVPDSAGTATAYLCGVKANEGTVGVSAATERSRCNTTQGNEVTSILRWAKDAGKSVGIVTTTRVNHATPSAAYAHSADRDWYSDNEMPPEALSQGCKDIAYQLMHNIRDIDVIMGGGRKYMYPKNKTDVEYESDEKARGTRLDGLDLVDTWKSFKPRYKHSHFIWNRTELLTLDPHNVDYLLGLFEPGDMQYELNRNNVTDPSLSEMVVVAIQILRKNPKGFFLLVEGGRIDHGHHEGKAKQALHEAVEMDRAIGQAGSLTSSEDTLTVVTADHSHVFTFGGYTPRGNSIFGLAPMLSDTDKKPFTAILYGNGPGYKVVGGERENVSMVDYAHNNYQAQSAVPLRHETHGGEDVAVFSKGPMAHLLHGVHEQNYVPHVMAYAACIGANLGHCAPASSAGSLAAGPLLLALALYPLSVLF

[19] = target: T6, Heat shock factor protein 1 (Mus musculus, UniProt P38532); assay: inhibition of MG132-induced HSE-luciferase signal, confirmation, cell-based, NIH3T3, luminescence, dose retest (AID 2382); assay type: functional;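 also: NIH3T3 fibroblasts with HSF1-driven luciferase reporter stressed by proteasome inhibitor MG132; luminescence from HSF1-driven luciferase expression after 8 hours of MG132 stress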
T6 sequence (P38532 whole entry): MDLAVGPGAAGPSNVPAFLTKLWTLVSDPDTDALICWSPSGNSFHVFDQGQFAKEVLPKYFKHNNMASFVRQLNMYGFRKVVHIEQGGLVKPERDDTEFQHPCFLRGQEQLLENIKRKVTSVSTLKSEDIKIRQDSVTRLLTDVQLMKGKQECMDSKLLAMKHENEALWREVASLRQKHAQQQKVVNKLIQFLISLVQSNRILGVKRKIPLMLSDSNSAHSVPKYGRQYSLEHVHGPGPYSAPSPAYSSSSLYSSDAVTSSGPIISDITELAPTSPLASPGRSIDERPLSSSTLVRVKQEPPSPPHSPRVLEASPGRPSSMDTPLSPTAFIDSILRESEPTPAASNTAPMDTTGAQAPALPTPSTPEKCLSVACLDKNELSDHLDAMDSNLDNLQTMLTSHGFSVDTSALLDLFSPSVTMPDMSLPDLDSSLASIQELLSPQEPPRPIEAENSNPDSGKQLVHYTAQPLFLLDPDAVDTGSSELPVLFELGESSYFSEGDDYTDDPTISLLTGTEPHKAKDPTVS

HEK293 [20] = assay: NOD1 signaling inhibitors, primary screen, cell-based, luminescence, uHTS (AID 1578); assay type: functional; conditions: Homo sapiens
[21] = insulin promoter down-regulators in MIN6 cells, imaging, high-content screening, mouse beta cells (AID 1628); assay type: functional
HEK293 [22] = assay: cells; assay type: functional, cell-based; conditions: Homo sapiens
[23] = cytotoxicity in MIN6 insulinoma cells, dose response, cytotoxicity control, cell-based, mouse insulinoma (AID 2122); assay type: functional;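 also: confirmatory high-throughput counterscreen run to flag cytotoxic compounds; mouse MIN-6 beta cells carrying an insulin promoter eGFP reporter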
HEK293 [24] = assay: cells; assay type: functional, cell-based; conditions: Homo sapiens; remark: listed apart in the source
HEK293 [25] = assay: NOD2 signaling inhibitors in MDP-stimulated cells, cell-based, uHTS, luminescence (AID 2001); assay type: functional; conditions: Homo sapiens
[26] = target: T7, Serine/threonine-protein phosphatase (Candida dubliniensis (strain CD36 / CBS 7987 / NCPF 3949 / NRRLY-17841) (Yeast), UniProt B9W6M3); assay: calcineurin pathway inhibitors in yeast reporter, dose response, S. cerevisiae, CDRE-lacZ, luminescence, secondary (AID 2388); assay type: functional, cell-based;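 also: yeast reporter cells carrying a calcineurin-responsive lacZ construct stimulated with calcium chloride; luminescent beta-galactosidase reporter signal in whole cells rather than isolated phosphatase activity; potency for inhibition where a drop in reporter signal means calcineurin blockade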
T7 sequence (B9W6M3 whole entry): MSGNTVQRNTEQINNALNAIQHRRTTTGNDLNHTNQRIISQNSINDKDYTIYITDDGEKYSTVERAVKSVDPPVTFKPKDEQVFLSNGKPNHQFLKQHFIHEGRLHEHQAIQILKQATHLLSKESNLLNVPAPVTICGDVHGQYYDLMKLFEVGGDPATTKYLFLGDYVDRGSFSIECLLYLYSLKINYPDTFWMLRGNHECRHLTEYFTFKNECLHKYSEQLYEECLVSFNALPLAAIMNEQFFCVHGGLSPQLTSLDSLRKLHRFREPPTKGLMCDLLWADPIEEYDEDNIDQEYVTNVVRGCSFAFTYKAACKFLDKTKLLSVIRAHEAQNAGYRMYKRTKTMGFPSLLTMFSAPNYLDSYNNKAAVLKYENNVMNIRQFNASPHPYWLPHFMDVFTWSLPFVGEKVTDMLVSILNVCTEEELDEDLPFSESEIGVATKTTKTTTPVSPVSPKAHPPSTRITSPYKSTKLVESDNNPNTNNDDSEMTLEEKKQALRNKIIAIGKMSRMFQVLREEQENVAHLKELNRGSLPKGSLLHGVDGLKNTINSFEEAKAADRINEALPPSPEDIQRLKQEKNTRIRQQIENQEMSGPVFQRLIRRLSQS

[27] = target: Signal transducer and activator of transcription 3 (Homo sapiens, UniProt P40763); assay: STAT3 inhibitors, late-stage profile, late-stage follow-up, cell-based, STAT1 panel, qPCR, cytotoxicity, panel member STAT3 Inhibition (AID 2078)
[28] = target: Signal transducer and activator of transcription 1-alpha/beta (Homo sapiens, UniProt P42224); assay: STAT3 inhibitors, late-stage profile, late-stage follow-up, cell-based, STAT1 panel, qPCR, cytotoxicity, panel member STAT1 Inhibition (AID 2078)
[29] = target: ATP-dependent molecular chaperone HSP82 (Candida albicans (strain WO-1) (Yeast), UniProt C4YTQ8); assay: loss of DOC-induced GRE-beta-galactosidase reporter signal, dose response, Hsp90 inhibitor project, S. cerevisiae, luminescence (AID 2400); assay type: functional, cell-based;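 also: beta-galactosidase luminescence from glucocorticoid response element reporter as proxy for Hsp90 function; inhibitor potency where signal loss means Hsp90 inhibition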
[30] = Shn3 3'UTR reporter inhibitors, dose response, cell-based, Clone20 osteoblasts, firefly luciferase, cherry-picked (AID 624132); assay type: functional;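 also: firefly luciferase luminescence from reporter carrying the Shn3 3'UTR in osteoblasts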
[31] = HepG2 cell cytotoxicity, dose response, cytotoxicity control for Shn3 inhibitor project, CellTiter-Glo, cherry-picked (AID 624134); assay type: functional, cell-based
[32] = control 3'UTR Renilla luciferase suppression, dose response, counter-screen for Shn3 inhibitor project, cell-based, Clone20-Shn3RL, cherry-picked (AID 624133); assay type: functional

T4 sequence (P09923 whole entry): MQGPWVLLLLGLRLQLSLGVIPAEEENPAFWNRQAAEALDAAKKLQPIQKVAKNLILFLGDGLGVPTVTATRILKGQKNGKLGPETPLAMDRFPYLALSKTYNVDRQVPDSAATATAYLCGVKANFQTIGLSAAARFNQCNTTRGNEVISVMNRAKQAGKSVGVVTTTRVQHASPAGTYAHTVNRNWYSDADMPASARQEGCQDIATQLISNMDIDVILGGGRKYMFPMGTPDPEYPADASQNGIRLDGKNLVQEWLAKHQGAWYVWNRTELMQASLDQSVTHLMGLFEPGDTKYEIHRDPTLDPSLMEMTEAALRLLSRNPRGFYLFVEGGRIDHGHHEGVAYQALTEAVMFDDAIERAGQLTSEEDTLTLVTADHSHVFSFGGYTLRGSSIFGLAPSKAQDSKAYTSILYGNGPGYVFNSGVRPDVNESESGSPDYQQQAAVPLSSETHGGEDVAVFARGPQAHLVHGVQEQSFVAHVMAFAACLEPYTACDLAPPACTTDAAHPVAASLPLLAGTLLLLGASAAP
T3 sequence (Q8VNN2 whole entry): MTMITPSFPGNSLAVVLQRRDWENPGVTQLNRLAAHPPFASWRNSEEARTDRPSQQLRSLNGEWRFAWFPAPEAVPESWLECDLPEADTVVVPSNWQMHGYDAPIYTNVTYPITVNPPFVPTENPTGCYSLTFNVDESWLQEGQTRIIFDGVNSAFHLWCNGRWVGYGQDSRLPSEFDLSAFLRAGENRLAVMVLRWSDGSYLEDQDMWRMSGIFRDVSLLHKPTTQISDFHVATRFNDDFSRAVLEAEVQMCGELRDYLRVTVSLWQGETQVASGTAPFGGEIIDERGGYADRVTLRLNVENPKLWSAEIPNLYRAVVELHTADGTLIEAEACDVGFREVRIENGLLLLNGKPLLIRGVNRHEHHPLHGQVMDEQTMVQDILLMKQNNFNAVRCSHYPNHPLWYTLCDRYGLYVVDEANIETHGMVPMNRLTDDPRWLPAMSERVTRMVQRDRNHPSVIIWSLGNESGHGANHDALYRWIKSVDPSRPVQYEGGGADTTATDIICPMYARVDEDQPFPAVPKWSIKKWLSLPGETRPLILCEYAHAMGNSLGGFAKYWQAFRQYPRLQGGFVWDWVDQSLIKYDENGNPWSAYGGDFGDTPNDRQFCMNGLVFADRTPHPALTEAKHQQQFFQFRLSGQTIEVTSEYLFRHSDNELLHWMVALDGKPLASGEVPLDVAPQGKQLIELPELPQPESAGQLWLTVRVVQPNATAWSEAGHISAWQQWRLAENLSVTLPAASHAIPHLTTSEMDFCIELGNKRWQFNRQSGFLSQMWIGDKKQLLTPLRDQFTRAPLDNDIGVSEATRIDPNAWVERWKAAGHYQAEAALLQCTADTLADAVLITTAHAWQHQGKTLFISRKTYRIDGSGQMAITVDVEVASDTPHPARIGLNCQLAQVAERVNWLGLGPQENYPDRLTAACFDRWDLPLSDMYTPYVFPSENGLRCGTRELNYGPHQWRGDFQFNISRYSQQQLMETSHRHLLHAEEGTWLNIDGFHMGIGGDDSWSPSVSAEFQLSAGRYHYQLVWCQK
T2 sequence (P41145 whole entry): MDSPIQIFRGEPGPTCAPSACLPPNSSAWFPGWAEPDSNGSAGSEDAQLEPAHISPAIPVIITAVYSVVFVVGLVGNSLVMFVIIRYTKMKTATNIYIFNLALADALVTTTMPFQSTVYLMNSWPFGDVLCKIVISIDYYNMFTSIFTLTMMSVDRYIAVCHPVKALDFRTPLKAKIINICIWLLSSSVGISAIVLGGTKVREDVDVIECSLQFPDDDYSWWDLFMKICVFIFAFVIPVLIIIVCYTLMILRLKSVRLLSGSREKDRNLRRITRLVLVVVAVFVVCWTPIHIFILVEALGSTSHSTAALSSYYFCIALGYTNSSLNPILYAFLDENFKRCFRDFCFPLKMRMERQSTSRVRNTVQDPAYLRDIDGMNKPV
T1 sequence (P41143 whole entry): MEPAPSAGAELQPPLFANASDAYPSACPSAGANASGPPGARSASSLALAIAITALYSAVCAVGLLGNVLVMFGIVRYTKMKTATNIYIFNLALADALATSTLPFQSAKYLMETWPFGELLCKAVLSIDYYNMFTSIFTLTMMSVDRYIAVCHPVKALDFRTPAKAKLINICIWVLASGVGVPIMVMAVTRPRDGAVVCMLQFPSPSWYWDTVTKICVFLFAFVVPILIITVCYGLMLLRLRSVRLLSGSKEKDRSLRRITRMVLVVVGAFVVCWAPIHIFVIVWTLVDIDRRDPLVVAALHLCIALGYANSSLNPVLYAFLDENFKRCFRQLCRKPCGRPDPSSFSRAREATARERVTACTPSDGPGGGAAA
Intestinal-type alkaline phosphatase (Mus musculus, UniProt P24822), sequence (P24822 whole entry): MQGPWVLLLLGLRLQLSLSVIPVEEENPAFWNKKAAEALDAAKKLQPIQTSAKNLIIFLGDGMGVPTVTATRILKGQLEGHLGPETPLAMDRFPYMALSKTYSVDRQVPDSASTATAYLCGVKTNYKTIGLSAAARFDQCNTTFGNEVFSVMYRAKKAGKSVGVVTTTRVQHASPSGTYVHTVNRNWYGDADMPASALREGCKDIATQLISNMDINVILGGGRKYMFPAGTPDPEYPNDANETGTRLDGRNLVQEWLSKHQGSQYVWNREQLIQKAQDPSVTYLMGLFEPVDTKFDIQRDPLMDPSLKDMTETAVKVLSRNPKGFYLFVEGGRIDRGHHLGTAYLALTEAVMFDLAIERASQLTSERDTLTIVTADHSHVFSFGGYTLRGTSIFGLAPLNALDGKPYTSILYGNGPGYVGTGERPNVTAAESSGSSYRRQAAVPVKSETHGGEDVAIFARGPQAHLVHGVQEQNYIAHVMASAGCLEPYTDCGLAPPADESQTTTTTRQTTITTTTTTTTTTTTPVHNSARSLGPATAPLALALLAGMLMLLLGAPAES
Mu-type opioid receptor, sequence (P35372 whole entry): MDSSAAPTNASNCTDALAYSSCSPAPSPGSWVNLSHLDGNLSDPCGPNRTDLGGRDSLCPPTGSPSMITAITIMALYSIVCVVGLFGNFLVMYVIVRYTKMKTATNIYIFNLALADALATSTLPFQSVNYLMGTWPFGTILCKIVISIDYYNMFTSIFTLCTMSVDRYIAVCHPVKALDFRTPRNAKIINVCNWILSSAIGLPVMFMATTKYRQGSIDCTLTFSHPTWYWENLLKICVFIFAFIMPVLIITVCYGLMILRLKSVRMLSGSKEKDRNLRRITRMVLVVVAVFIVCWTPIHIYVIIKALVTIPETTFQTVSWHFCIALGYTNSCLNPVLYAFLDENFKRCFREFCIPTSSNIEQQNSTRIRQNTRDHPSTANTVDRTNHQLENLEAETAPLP
Signal transducer and activator of transcription 3, sequence (P40763 whole entry): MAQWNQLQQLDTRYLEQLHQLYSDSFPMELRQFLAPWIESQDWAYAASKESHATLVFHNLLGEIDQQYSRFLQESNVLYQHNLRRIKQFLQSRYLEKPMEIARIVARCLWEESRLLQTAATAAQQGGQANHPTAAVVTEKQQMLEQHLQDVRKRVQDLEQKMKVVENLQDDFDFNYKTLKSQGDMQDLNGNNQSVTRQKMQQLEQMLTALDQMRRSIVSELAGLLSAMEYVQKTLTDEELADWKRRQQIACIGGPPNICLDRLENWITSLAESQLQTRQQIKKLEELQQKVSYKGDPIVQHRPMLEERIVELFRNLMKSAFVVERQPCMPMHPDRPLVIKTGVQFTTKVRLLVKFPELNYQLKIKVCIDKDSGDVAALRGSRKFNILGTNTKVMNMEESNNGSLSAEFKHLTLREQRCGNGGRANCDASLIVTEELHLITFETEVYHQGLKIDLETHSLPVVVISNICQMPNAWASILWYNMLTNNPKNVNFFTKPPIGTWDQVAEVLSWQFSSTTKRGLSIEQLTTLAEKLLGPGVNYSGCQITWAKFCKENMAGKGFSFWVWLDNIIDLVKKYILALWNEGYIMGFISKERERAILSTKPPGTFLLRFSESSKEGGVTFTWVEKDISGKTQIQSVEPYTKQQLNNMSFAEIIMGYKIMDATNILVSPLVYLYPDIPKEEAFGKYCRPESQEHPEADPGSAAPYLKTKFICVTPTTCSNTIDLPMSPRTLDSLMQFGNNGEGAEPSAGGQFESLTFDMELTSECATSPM
G-protein coupled receptor 55, sequence (Q9Y2T6 whole entry): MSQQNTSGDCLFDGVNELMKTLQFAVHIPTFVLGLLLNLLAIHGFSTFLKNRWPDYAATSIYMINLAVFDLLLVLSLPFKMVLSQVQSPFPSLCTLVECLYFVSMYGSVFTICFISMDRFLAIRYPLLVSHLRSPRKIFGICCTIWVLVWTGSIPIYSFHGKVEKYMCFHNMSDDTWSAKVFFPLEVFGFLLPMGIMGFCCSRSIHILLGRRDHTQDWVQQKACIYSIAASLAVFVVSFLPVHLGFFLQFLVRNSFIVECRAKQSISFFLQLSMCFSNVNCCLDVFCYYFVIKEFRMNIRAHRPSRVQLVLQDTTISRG
Photoreceptor-specific nuclear receptor, sequence (Q9Y5X4 whole entry, the tested form may be a part): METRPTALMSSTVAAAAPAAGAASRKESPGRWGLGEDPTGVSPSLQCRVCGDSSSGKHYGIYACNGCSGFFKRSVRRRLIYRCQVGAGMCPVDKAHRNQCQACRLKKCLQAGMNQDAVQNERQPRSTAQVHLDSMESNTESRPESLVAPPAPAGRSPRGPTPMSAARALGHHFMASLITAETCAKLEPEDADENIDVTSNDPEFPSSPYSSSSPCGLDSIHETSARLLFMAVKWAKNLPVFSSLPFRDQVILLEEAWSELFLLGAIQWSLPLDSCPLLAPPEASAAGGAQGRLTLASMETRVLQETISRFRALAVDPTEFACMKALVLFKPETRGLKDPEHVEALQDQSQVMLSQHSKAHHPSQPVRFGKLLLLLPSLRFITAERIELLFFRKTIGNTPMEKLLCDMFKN

Structure (SMILES) | EC50 [1] | IC50 [2] | EC50 (Mu-type opioid receptor) | EC50 [4] | EC50 [5] | IC50 [8] | EC50 (Beta-galactosidase [10]) | IC50 [11] [µM] | IC50 [15] | EC50 [16] | EC50 [17] | EC50 [18] | further results
Cc1cccc(Cc2cnc(N3C(=N)SC(C)C3=O)s2)c1 (stereo not drawn) | > 160 µM (inconclusive) | > 32 µM (inactive) | > 32 µM (inactive) | > 32 µM (inactive) | 1.91 µM (active) | 5.68 µM (active) | > 31.5 µM (inactive) | > 32 | – | – | – | – | EC50 [3]: 0.179 µM (active); IC50 [6]: 0.847 µM (active); EC50 [7]: 2.41 µM (active); EC50 [9]: > 60 µM (not active); EC50 (Streptococcus): 7.82 µM (active); IC50 (Beta-galactosidase [12]): > 66.6 µM (inactive); CC50 (Vero): > 25 µM (active); IC50 [13]: 1.87 µM (active)
O=C(Nc1ccc(F)cc1)c1ccc(CN2CCc3ccccc32)cc1 | – | – | – | – | – | – | – | – | – | – | – | – | IC50 (Tumor necrosis factor): > 20 µM (inactive); IC50 (HEK293 [14]): > 20 µM (inactive)
C[C@@H](NC(=O)c1[nH]cnc1C(=O)Nc1ccon1)c1ccccc1 | – | – | – | – | – | – | – | – | 39.3 µM (active) | 12 µM (active) | 16.4 µM (active) | 25.9 µM (active) | –
CCn1c(C)nc2cc(C(=O)NNC(=S)Nc3ccccc3)ccc21 | – | – | – | – | – | – | – | – | 50.3 µM (active) | 10.6 µM (active) | 15.6 µM (active) | 15.4 µM (active) | EC50 [19]: 0.192 µM (active)
CCN(CC)C(CNC(=O)c1cc(=O)[nH]c2ccccc12)c1ccccc1Cl (stereo not drawn) | – | > 32 µM (inactive) | > 32 µM (inactive) | > 32 µM (inactive) | – | 14.9 µM (active) | > 31.5 µM (inactive) | 14.6 | – | – | – | – | –
c1ccc(CC2CCN(c3ncnc4sccc34)CC2)cc1 | > 160 µM (inconclusive) | – | – | – | 0.574 µM (active) | – | – | – | – | – | – | – | EC50 (HEK293 [20]): > 20 µM (inactive); IC50 [21]: 0.756 µM (active); IC50 (HEK293 [22]): > 20 µM (inactive); IC50 [23]: 0.505 µM (active); IC50 (HEK293 [24]): > 20 µM (inactive); IC50 (HEK293 [25]): > 20 µM (inactive); EC50 [26]: > 180 µM (inactive); IC50 [27]: 1.85 µM (active); IC50 [28]: > 55.7 µM (inactive); EC50 [29]: 19.5 µM (active); AC50 [30]: 0.362 µM (active); AC50 [31]: 1.84 µM (active); AC50 [32]: 5.88 µM (active)
